# Measurements: patent US20060058329A1, “Pyrazole inhibitors of the transforming growth factor” (priority 2003, published 2006)
# Legend:
# [1] = tested on: TGF-β signalling (PAI-1 promoter-luciferase in HepG2 cells); assay: Cellular transcriptional assay (PAI-1 promoter luciferase reporter, TGF-β stimulated); details: for IC50: Homo sapiens, HepG2, read-out: TGF-β cellular activity (IC50)
# Protocol: Assay 1 (Cellular Transcriptional Assay)
# The assay was performed in HepG2 cells stably transfected with the PAI-1 promoter (known to be a strong TGF-β responsive promoter) linked to a luciferase (firefly) reporter gene. The compounds were selected on their ability to inhibit luciferase activity in cells exposed to TGF-β. In addition, cells were transfected with a second luciferase (Renilla) gene which was not driven by a TGF-β responsive promoter and was used as a toxicity control.
# 96 well microplates were seeded, using a multidrop apparatus, with the stably transfected cell line at a concentration of 35000 cells per well in 200 μl of serum-containing medium. These plates were placed in a cell incubator.
# 18 to 24 hours later (Day 2), cell-incubation procedure was launched. Cells were incubated with TGF-β and a candidate compound at concentrations in the range 50 nM to 10 μM (final concentration of DMSO 1%). The final concentration of TGF-β (rhTGFβ-1) used in the test was 1 ng/mL. […] The final volume of the test reaction was 150 μl. Each well contained only one candidate compound and its effect on the PAI-1 promoter was monitored.
# Columns 11 and 12 were employed as controls. Column 11 contained 8 wells in which the cells were incubated in the presence of TGF-β, without a candidate compound. Column 11 was used to determine the ‘reference TGF-β induced firefly luciferase value’ against which values measured in the test wells (to quantify inhibitory activity) were compared. In wells A12 to D12, cells were grown in medium without TGF-β. […]
# 12 to 18 hours later (day 3), the luciferase quantification procedure was launched. […] Following agitation (15 to 30 mins), luciferase activities of the plates were read in a dual-injector luminometer (BMG lumistar). For this purpose, 50 μl of luciferase assay reagent and 50 μL of ‘Stop & Glo’ buffer were injected sequentially to quantify the activities of both luciferases. […] For each of the compounds tested, a concentration response curve was constructed from which an IC50 value was determined graphically.
# [2] = target: T1, recombinant GST-ALK5 (residues 198-503) (Homo sapiens, UniProt P36897); assay: Alk5 fluorescence polarization assay; type: binding; details: rhodamine green-labelled ligand 1 nM, ALK5 10 nM, read-out: ALK5 receptor modulator activity (IC50)
# T1 construct: recombinant GST-ALK5 (residues 198-503)
# T1 sequence (P36897 198-503): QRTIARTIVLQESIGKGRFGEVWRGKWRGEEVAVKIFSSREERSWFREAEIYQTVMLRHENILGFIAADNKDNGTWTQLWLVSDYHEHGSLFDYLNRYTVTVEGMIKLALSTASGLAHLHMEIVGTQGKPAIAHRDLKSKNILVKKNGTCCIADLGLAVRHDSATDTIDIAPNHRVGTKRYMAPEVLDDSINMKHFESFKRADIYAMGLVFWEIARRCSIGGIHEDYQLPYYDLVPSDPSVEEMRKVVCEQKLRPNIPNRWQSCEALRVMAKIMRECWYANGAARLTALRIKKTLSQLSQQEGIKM
# Protocol: Assay 2 (Alk5 Fluorescence Polarization Assay)
# Kinase inhibitor compounds conjugated to fluorophores, can be used as fluorescent ligands to monitor ATP competitive binding of other compounds to a given kinase. The increase in depolarization of plane polarized light, caused by release of the bound ligand into solution, is measured as a polarization/anisotropy value. This protocol details the use of a rhodamine green-labelled ligand for assays using recombinant GST-ALK5 (residues 198-503).
# Assay buffer components: 62.5 mM Hepes pH 7.5 (Sigma H-4034), 1 mM DTT (Sigma D-0632), 12.5 mM MgCl2 (Sigma M-9272), 1.25 mM CHAPS (Sigma C-3023). […]
# ALK5 was added to assay buffer containing the above components and 1 nM of the rhodamine green-labelled ligand so that the final ALK5 concentration was 10 nM based on active site titration of the enzyme. […] The plates were read immediately on a LJL Acquest fluorescence reader (Molecular Devices, serial number AQ1048) with excitation, emission, and dichroic filters of 485 nm, 530 nm, and 505 nm, respectively. The fluorescence polarization for each well was calculated by the Acquest reader and then imported into curve fitting software for construction of concentration response curves. The normalized response was determined relative to the high controls (1 μl DMSO in column 12, rows A-D) and the low controls (1 μl of control compound in column 12, rows E-H). […]
Compound,IC50 [2] [nM],IC50 [1] [nM],melting point [°C],"firefly and renilla luciferase activities, relative to those obtained in column 11 (TGF-β only) ([1]; 500 μM CPO in the presence of TGF-β, toxicity control)"
"O=C1C=CCC1 [CPO, Cyclopentenone, reference compound]",–,–,–,around 50%
"Cc1cccc(-c2n[nH]cc2-c2ccnc(-c3ccc(OCc4cn(C)cn4)cc3)c2)n1 [Example 1, 2-{4-[(1-methyl-1H-imidazol-4-yl)methoxy]phenyl}-4-[3-(6-methylpyridin-2-yl)-1H-pyrazol-4-yl]pyridine]",5,34,–,–
"CCN1CCN(C(=O)c2ccc(-c3cc(-c4[nH]ncc4-c4cccc(C)n4)ccn3)cc2)CC1 [Example 19, 3-[2-(4-((1-ethyl-piperazin-4-yl)carbonyl)phenyl)pyridin-4-yl]-4-[6-methylpyridin-2-yl]-1H-pyrazole]",–,–,126,–

# More lines, main results first:
IC50 [2] [nM],IC50 [1] [nM],melting point [°C],Compound,"firefly and renilla luciferase activities, relative to those obtained in column 11 (TGF-β only) ([1]; 500 μM CPO in the presence of TGF-β, toxicity control)"
17,38,96,"Cc1cccc(-c2cn[nH]c2-c2ccnc(-c3ccc(OCCN4CCCC4)cc3)c2)n1 [Example 22, 3-[2-(4-(2-(pyrolidin-1-yl)ethoxy)phenyl)pyridin-4-yl]-4-[6-methylpyridin-2-yl]-1H-pyrazole]",–
–,–,170,"Cc1cccc(-c2cn[nH]c2-c2ccnc(-c3ccc(OCC(=O)N4CCOCC4)cc3)c2)n1 [Example 23, 3-[2-(4-((morpholin-4-yl)carbonylmethyloxy)phenyl)pyridin-4-yl]-4-[6-methylpyridin-2-yl]-1H-pyrazole]",–
